Consider six compounds from patent US20140314746A1, “METHODS FOR TREATING OR PREVENTING FIBROSIS IN SUBJECTS AFFLICTED WITH SCLERODERMA” (Philadelphia Health and Education Corporation, d/b/a Drexel …, priority 2013, published 2014).

The test system of one data set is SSc fibroblasts. Briefly: Hydroxyproline secretion by SSc fibroblasts treated with glyburide or parthenolide. The note with it: 100 μM glyburide or 10 μM parthenolide; media of 24 h and further 24 h.
In the next data set the test system is interleukin-1β. The note with it: cited from earlier work.
The test system of data set [1] is SSc lung fibroblasts. Briefly: IL-1β secretion by SSc lung fibroblasts (ELISA of media). The note with it: SSc lung fibroblasts (n=3), 20 μM inhibitor, 48 h; untreated 19.7±0.4. Format: cell-based, human. As for the experimental part: (§1) Normal human dermal fibroblasts (n=4) were purchased from the Coriell Institute (Camden, N.J.) and normal lung fibroblasts (n=3) were obtained from the University of Pittsburgh. Normal and SSc dermal fibroblasts (750,000 cells/dish) were cultured in DMEM (Mediatech Inc., Manassas Va.) supplemented with 10% FBS (Mediatech) and 1% penicillin/streptomycin (Mediatech). Protein lysates were collected for western blotting and media was collected for ELISA and hydroxyproline assays. SSc fibroblasts were treated with 20 μM caspase-1 inhibitor, Benzyloxycarbonyl-Tyr-Val-Ala-Asp(OMe)-fluoromethylketone (Z-YVAD(OMe)-FMK; Enzo Life Sciences, Plymouth Meeting Pa.) for 48 h. Fibroblasts from NLRP3−/−, and ASC−/− and C57BL/6 mice (Jackson Laboratories, Bar Harbor Me.) were established from skin and were treated with 1 μM bleomycin and 20 μM Z-YVAD(OMe)-FMK for 48 h.
(§2) Media from SSc and normal fibroblasts were assayed by ELISA for IL-1β (Thermo Scientific, Rockford Ill.) and IL-18 (MBL, Woburn Mass.) according to the manufacturer's recommendations. […] The sensitivity of the IL-1β ELISA was 2.6 pg/ml and the sensitivity of the IL-18 was 12 pg/ml.
In general terms: An ELISA detects its analyte on a solid surface through an enzyme-linked reagent.

In data set [2] the test system is SSc dermal fibroblasts. The data set can be described thus: IL-1β secretion by SSc dermal fibroblasts (ELISA of media). Format: cell-based, human. The note with it: SSc dermal fibroblasts (n=4), 20 μM inhibitor, 48 h, untreated 41.1±5.6. As for the experimental part:
as §1, §2
(§3) 80% confluent fibroblasts were cultured in serum free Opti-MEM and transfected with siRNA targeting caspase-1 (Santa Cruz) for 48 h, with an additional transfection of the siRNA duplex after 24 h. […]

For data set [3], the system named is SSc lung fibroblasts. Briefly: Hydroxyproline (total collagen) secretion by SSc lung fibroblasts. Format: cell-based, human. The note with it: 20 μM inhibitor, 48 h, untreated 216.1±18.5. The procedure:
as §1
(§4) Total collagen secreted into media was measured by hydroxyproline (Woessner, 1961, Arch Biochem Biophys 93:440-7). Absorbances were read in a spectrophotometer at 550 nm and the concentration of hydroxyproline was determined against a standard curve of hydroxyproline.

Data set [4] deals with SSc dermal fibroblasts. The data set can be described thus: Hydroxyproline (total collagen) secretion by SSc dermal fibroblasts. Format: cell-based, human. The note with it: 20 μM inhibitor, 48 h, untreated 18.73±2.33. The procedure:
as §1, §4, §3

Data set [5] has as its system SSc dermal fibroblasts. Briefly: IL-18 secretion by SSc dermal fibroblasts (ELISA of media). Format: cell-based, human. The note with it: SSc dermal fibroblasts (n=4), 20 μM inhibitor, 48 h; untreated 23.9±1.0. The procedure: as §1, §2, §3
Another data set deals with mouse dermal fibroblasts. The data set can be described thus: Hydroxyproline secretion by mouse dermal fibroblasts stimulated with bleomycin. Format: cell-based. The note with it: for hydroxyproline secreted: 48 h. The procedure:
as §1, §4

A further data set relates to fibroblasts. Format: cell-based. As for the experimental part: as §1
For data set [6], the system named is SSc dermal fibroblasts. The data set can be described thus: Western blot of secreted COL1A1 and COL3A1, SSc dermal fibroblasts. The note with it: 48 h. Format: cell-based, human. As for the experimental part: as §1
(§5) 30 μl of media was size fractionated on a 5% SDS polyacrylamide gel (Invitrogen, Carlsbad Calif.) and the proteins transferred to a PVDF membrane (Invitrogen). Non-specific binding sites were blocked and then probed with rabbit-anti-human COL1A1, COL3A1, or α-SMA (Santa Cruz Biotechnologies, Santa Cruz Calif.) overnight at 4° C. The membrane was washed and incubated with goat anti-rabbit-HRP (1:5000) (Jackson Immunoresearch, West Grove Pa.). […] The intensity of the bands was measured by ImageJ (http://rsbweb dot nih dot gov/ij/).

The subject of data set [7] is SSc lung fibroblasts. Briefly: Western blot of secreted COL1A1 and COL3A1, SSc lung fibroblasts. Format: cell-based, human. The note with it: 48 h. The procedure:
as §1, §5

Data set [8] concerns SSc dermal fibroblasts. The data set can be described thus: Western blot of α-SMA in SSc dermal fibroblasts. Format: cell-based, human. The note with it: 48 h. As for the experimental part:
30 μl of media was size fractionated on a 5% SDS polyacrylamide gel (Invitrogen, Carlsbad Calif.) and the proteins transferred to a PVDF membrane (Invitrogen). Non-specific binding sites were blocked and then probed with rabbit-anti-human COL1A1, COL3A1, or α-SMA (Santa Cruz Biotechnologies, Santa Cruz Calif.) overnight at 4° C. The membrane was washed and incubated with goat anti-rabbit-HRP (1:5000) (Jackson Immunoresearch, West Grove Pa.). The HRP signal was developed with SuperSignal Chemiluminescent Substrate (Pierce). The intensity of the bands was measured by ImageJ (http://rsbweb dot nih dot gov/ij/).
80% confluent fibroblasts were cultured in serum free Opti-MEM and transfected with siRNA targeting caspase-1 (Santa Cruz) for 48 h, with an additional transfection of the siRNA duplex after 24 h. Cells were harvested for protein for Western blotting and the media was saved for hydroxyproline and IL-1β and IL-18 measurements and cells were lysed for α-SMA detection.

The subject of data set [9] is SSc dermal myofibroblasts. Briefly: Immunofluorescence of α-SMA and f-actin in SSc dermal myofibroblasts. The note with it: 48 h. Format: cell-based, human. The procedure: SSc dermal fibroblasts were cultured in chamber slides to 80% confluency and treated with Z-YVAD(OMe)-FMK for 48 h, air dried then fixed with 4% paraformaldehyde for 20 min. Slides were washed with 1×PBS and blocked with 5% goat serum. Primary antibody to α-SMA (1:100, Clone #1A4, Abcam, Cambridge Mass.) and applied to the cells for 40 min, then washed in PBS. Cy2-conjugated goat-anti-mouse (1:200, Jackson ImmunoResearch, West Grove Pa.) was applied to the cells for 40 min, and then washed. Rhodamine phalloidin (1:100, Cytoskeleton, Denver Colo.) was applied to the cells for 15 min, then the cells were washed with PBS, counterstained with DaPI (Invitrogen), visualized with a Nikon Eclipse 80i epi-fluorescent microscope, and photographed at 400× magnification. All images (red for f-actin, green for α-SMA, and triple for simultaneous detection of f-actin, α-SMA and nuclei) were captured at 6 sec, Gain=2, Gamma=0.5.

The test system of data set [10] is SSc lung fibroblasts. The data set can be described thus: IL-18 secretion by SSc lung fibroblasts (ELISA of media). Format: cell-based, human. The note with it: SSc lung fibroblasts (n=3), 20 μM inhibitor, 48 h; untreated 743.9±6.4. The procedure: as §1, §2
The test system of data set [11] is other members of the interleukin-1 family, including interleukin-1 alpha. The note with it: cited from earlier work.
Data set [12] has as its system mouse models of acute gout. The note with it: in vivo; cited from earlier work.
Data set [13] deals with C57Bl/6, NLRP3−/− and ASC−/− mice. Briefly: Murine bleomycin-induced model of fibrosis (skin thickness, lung pathology). Format: in vivo, mouse. As for the experimental part: All animals were housed in the University Laboratory Animal facility and fed ad libitum. Pathogen free C57Bl/6 mice (n=7) were purchased from Jackson Laboratories. […] Seven untreated C57BL/6 mice were assessed for skin thickness and lung pathology. Dermal fibrosis was induced by daily subcutaneous administration of 100 μl of a 1 mg/ml of bleomycin (BioMol, Plymouth Meeting Pa.) in the flank for 28 days. At the same time 100 μl sterile PBS was administered by subcutaneous injection in the contralateral flank of the same mouse according to the method of Yamamoto et al. (Yamamoto et al., 1999, J Invest Dermatol 112:456-62). Mice were euthanized and tissue from both injection sites was harvested, along with lung tissue. Tissues were fixed, embedded in paraffin, and sectioned onto positively charged slides, then stained with Masson's Trichrome and photographed. Collagen was measured in the skin from just below the epidermis to the fat layer. Two images were taken at 100× magnification. Six measurements were taken for each image using the Advanced SpotCam software and expressed as skin thickness in microns±SEM and fold change in skin thickness.

Description for SSc fibroblasts: SSc fibroblasts were cultured in 5 ml of media with 100 μM glyburide (G) or 10 μM parthenolide (P). After 24 h the media was collected and the fibroblasts given an additional 5 ml of media with 100 μM glyburide or 10 μM parthenolide and cultured for a further 24 h. Media from both time points was assayed for hydroxyproline. Three independent experiments were performed in and assayed in triplicate. Data is presented as means±SEM. G=glyburide, P=parthenolide.
SSc fibroblasts were treated for 24 h with 100 μM Glyburide or 10 μM Parthenolide. The media was replaced with fresh after 24 h with 100 μM Glyburide or 10 μM Parthenolide and cultured for an additional 24 h. The culture media was assayed for hydroxyproline.

For the compound `COc1ccc(Cl)cc1C(=O)NCCc1ccc(S(=O)(=O)NC(=O)NC2CCCCC2)cc1` [Glyburide, 5-chloro-N-(4-[N-(cyclohexylcarbamoyl)sulfamoyl]phenethyl)-2-methoxybenzamide], in the data set on SSc fibroblasts, the “hydroxyproline secretion by SSc fibroblasts” value is “significantly reduce”.
As to `CSc1ccc(-c2nn(Cc3ccccc3)c(=O)cc2-c2ccc(Cl)cc2)cc1` [K-832, 2-benzyl-5-(4-chlorophenyl)-6-[4-(methylthio)phenyl]-2H-pyridazin-3-one], the “inhibitory activity against production of interleukin-1β” value with interleukin-1β was “high inhibitory activity”.
In the case of `COC(=O)C[C@H](NC(=O)[C@H](C)NC(=O)[C@@H](NC(=O)[C@H](Cc1ccc(O)cc1)NC(=O)OCc1ccccc1)C(C)C)C(=O)CF` [Z-YVAD(OMe)-FMK, Benzyloxycarbonyl-Tyr-Val-Ala-Asp(OMe)-fluoromethylketone], the IL-1β secreted was 7.2 ± 0.2 pg/mL with SSc lung fibroblasts [1], 12.0 ± 1.6 pg/mL with SSc dermal fibroblasts [2] and 12.0 pg/mL in the data set on SSc dermal fibroblasts [2] (listed as YVAD). Also, the hydroxyproline secreted in the data set on SSc lung fibroblasts [3] was 132.0 ± 22.8 µg/mL; in the data set on SSc dermal fibroblasts [4], 5.19 ± 0.94 µg/mL; in the data set with mouse dermal fibroblasts (C57BL/6 fibroblasts, 1 μM bleomycin plus 20 μM inhibitor), 5.9 ± 0.7 µg/mL. Moreover, the IL-18 secreted with SSc dermal fibroblasts [5] was 15.2 ± 1.5 pg/mL; with SSc lung fibroblasts [10], 311.6 ± 18.5 pg/mL. The “apoptosis” value in the data set on fibroblasts was “did not interfere with cell proliferation or induce apoptosis”. In addition, the “Secreted COL1A1 protein (densitometry)” value in the data set on SSc dermal fibroblasts [6] (untreated 11.4±1.3 AU) was found to be 8.9±1.0 AU. Moreover, the “COL3A1 protein (densitometry)” value with SSc dermal fibroblasts [6] (untreated 14.7±3.1 AU) was 8.6±2.5 AU; in the data set on SSc lung fibroblasts [7] (untreated 12.3±3.8 AU) it was 5.5±1.2 AU. In addition, in the data set with SSc lung fibroblasts [7] (p=0.051), the “COL1A1 secretion” value is “trend for the reduction”. Also, in the data set with SSc dermal fibroblasts [8] (after normalization for β-actin), the “Decrease of α-smooth muscle actin by Western” value was “approximately 50%”. For the same compound, in the data set on SSc dermal fibroblasts [8] (untreated 1.07±0.15), the “α-SMA protein by Western, normalized for β-actin loading” value is 0.54±0.14. In addition, the “F-actin MFI” value in data set [9] (SSc dermal cells, untreated 37.8±3.09) is reported as 39.6±2.9 MFI. Also, the “F-actin staining” value in data set [9] (SSc dermal myofibroblasts) is “unaffected”. In [9] (SSc dermal myofibroblasts, untreated 1.03±0.05), the “Mean fluorescent intensity (MFI) of α-SMA after correction for f-actin MFI” value is given as 0.68±0.04. In addition, the “Mean fluorescent intensity of α-SMA” value in data set [9] (SSc dermal myofibroblasts, untreated 38.9±2.4) was 27.6±2.5.
For “Canakinumab: a human monoclonal antibody targeted at interleukin-1 beta”, in [11], the “cross-reactivity with other members of the interleukin-1 family” value is “no cross-reactivity”.
“XOMA-052: a potent anti-IL-1β humanized neutralizing antibody”: the “activity in mouse models of acute gout” value in data set [12] is recorded as “active”.
Turning to bleomycin, the “hydroxyproline secretion” value with mouse dermal fibroblasts (ASC−/− and NLRP3−/− fibroblasts, 1 μM bleomycin, p>0.43) is listed as “not induced”. For the same compound, the hydroxyproline secreted in the data set on mouse dermal fibroblasts (C57BL/6 fibroblasts stimulated with 1 μM bleomycin, unstimulated 10.6±3.8) was 42.8 ± 2.9 µg/mL. Also, the “fold induction of skin thickness” value in [13] (ASC−/− mice, bleomycin vs PBS injected skin) stood at 1.06 fold; in [13] (NLRP3−/− mice, bleomycin vs PBS injected skin), 1.10 fold. Also, the average skin thickness in [13] (C57Bl/6 mice, bleomycin 100 μg daily s.c. 28 days, PBS injected skin 320.7±40.6) stood at 504.4±66.7 microns. Also, the “fold increase in skin thickness” value in data set [13] (C57Bl/6 mice, bleomycin vs PBS injected skin) was 1.54±0.11 fold. In addition, the “lung pathology” value in data set [13] (wild-type C57Bl/6 mice, bleomycin s.c. 28 days) is recorded as “developed extensive pulmonary fibrosis”.
